From patent US20080213356A1, “Pharmaceutical Composition Containing Hmg-Coa Reductase Inhibitor And Method For The Preparation Thereof” (PHARMATHEN S.A., priority 2005, published 2008) come the findings set out here.

The structures appear in SMILES notation. Counter-ions that a name gives are not always drawn.

A short description of the series: Flowability and compressibility, Carr's Index. In kind it is physicochemical. Conditions: pure pharmaceutical substance. The text has this: However, when Dimethicone was incorporated according to the present invention, a decrease of 40-50% of the Carr Index was observed, which indicates an improvement of the flow properties of Fluvastatin and Atorvastatin and therefore the use of a direct compression for the final formulation.

Regarding `CC(C)c1c(C(=O)Nc2ccccc2)c(-c2ccccc2)c(-c2ccc(F)cc2)n1CC[C@@H](O)C[C@@H](O)CC(=O)O` (relative stereo) [Atorvastatin, [R—(R*,R*)]-2-(4-fluorophenyl)-b,d-dihydroxy-5-(1-methylethyl)-3-phenyl-4 [(phenylamino)carbonyl]-1H-pyrrole-1-heptanoic acid, calcium salt (2:1) trihydrate], the “mean Carr's Index” value is on record as 24-25%.
